US20110004019A1, “Parakeratosis Inhibitor, Pore-Shrinking Agent, Or Rough Skin Inhibiting/Ameliorating Agent, And External Composition For Skin Containing The Same” (SHISEIDO COMPANY LTD., priority 2008, published 2011)

Legend:
[1] = system: cheek of sensory person (who has sensitive skin); experiment: Sensory Irritation Test; assay type: in vivo, human; details: for Evaluation (sensory irritation): 1 mL on cheek, ten minutes; for sensory irritation (Tables 4 and 5): 3 mass %, test subject with sensitive skin
Description: Then, the irritating sensation was evaluated every 30 seconds for ten minutes immediately after the application, and a final evaluation was reported (n=2). The evaluation of the irritating sensation was based on the following rating criteria in four levels, and each average rating was calculated to be classified by the following criteria.
3: The test cannot be continued because of extremely strong irritation such as tingly, burning, prickly, and itching sensation. 2: The use is intolerable because of strong irritation such as tingly, burning, prickly, and itching sensation. 1: The use is tolerable though slight irritation such as tingly, burning, prickly, and itching sensation is felt. 0: The irritation is not particularly felt.
A: Average rating is less than 0.2 B: Average rating is 0.2 or greater to less than 1.0 C: Average rating is 1.0 or greater to less than 2.0 D: Average rating is 2.0 or greater

[2] = system: back skin of hairless mouse (HR-1) applied with oleic acid; experiment: Test for Parakeratosis-Inhibiting Effect (oleic acid applied on the back of hairless mouse; rough skin visual score and parakeratosis value); assay type: in vivo; details: for Parakeratosis value (Average for 5 mice): 3.0 mass % sample after 10 mass % oleic acid; for Parakeratosis value (Average for 5 mice) / Parakeratosis value (Average for 4 mice) / Visual observation value (Average for 4 mice): 3 days; for Parakeratosis value (Average for 5 mice) / Parakeratosis value (Average for 4 mice): control = 2.0; for effect of inhibiting parakeratosis (Tables 1 and 2) / effects of inhibiting rough skin such as desquamation and erythema caused by unsaturated fatty acids (text on Table 1): 3 mass %, hairless mouse, oleic acid; for Parakeratosis value (Average for 4 mice) / Visual observation value (Average for 4 mice): 3 mass % sample after 10 mass % oleic acid; for Parakeratosis value (Average for 4 mice): tape-stripped stratum corneum, hematoxylin, higher = more parakeratosis; for Visual observation value (Average for 4 mice): back of hairless mouse, rough skin (desquamation and erythema) score, control = 2.0, no roughness = 0.0
Description: 3 mass % test compound aqueous solution (containing 30 mass % ethanol) was primarily prepared as a sample solution. The pH was adjusted with hydrochloric acid or sodium hydroxide so as to be 7.0 to 7.5. When the solubility of test compound was low, the sample solution was prepared depending on the solubility.
100 μl of 10 mass % oleic acid solution (solvent: ethanol) was applied on the back of a hairless mouse (HR-1; Hoshino Laboratory Animals), and then 100 μl of the sample solution was applied thereon. […] In the evaluation, the condition of the skin on which the control (control aqueous solution) was applied set a score of 2.0 and the skin condition without roughness set a score of 0.0. Then, the skin condition was scored by visual observation in increments of 0.25 between them. At the same time, the stratum corneum at the back of the hairless mouse was peeled off with tape, the nuclei were stained by hematoxylin, and the degree of parakeratosis was observed and evaluated using a parakeratosis value within a range of 1.0 to 3.0 (in 0.25 increments). The higher the value is, the more the number of nucleated cell in the stratum corneum is, i.e., the more the parakeratosis is advanced.
The evaluation was conducted according to the plan which was approved in the in-house council on animal experiment, complying with Act on Welfare and Management of Animals and other related acts.

[3] = system: back skin of hairless mice (HR-1) applied with oleic acid; experiment: Test for Ameliorating Effect to Rough Skin Induced by Applying Oleic Acid (TEWL); assay type: in vivo; details: for TEWL value: 3 mass % sample after 10 mass % oleic acid, 3 days, average of four mice, higher = worse rough skin, control = 12.0; for ΔTEWL value compared with the control aqueous solution (text on Table 3): 3 mass %, hairless mice, oleic acid
Description: The difference was compared with the control (control aqueous solution), and the effect was determined. […] The TEWL was measured using TEWA Meter TM210 (Courage+Khazaka Electronic GmBH).
100 μl of 10 mass % oleic acid solution (solvent: ethanol) was applied on the back of hairless mice (HR-1, four mice per group), and then 100 μl of the sample solution was applied thereon. The day after this procedure was continued for 3 days, the TEWL value of the back was measured, and the average value of the four mice was calculated. The higher the TEWL value is, the worse rough skin becomes.

[4] = system: IL-1α production in human normal keratinocytes; experiment: Inhibiting Effect of Increased Production of Inflammatory Cytokine Caused by Oleic Acid; assay type: cell-based; details: for IL-lα (pmol/ml, Mean ± S.D.): 8 hours
Description: LTD., were incubated using KGM culture medium in a 75 cm^2 flask for 3 days. The cells were trypsinized according to a normal method, collected, and then inoculated into a 24 well plate (Corning Inc.) so as to be 40,000 cells per 0.5 ml of KGM culture medium. After incubation for another 3 days, oleic acid, or oleic acid and test compound, were added thereto. […] As a control, ethanol was added instead of oleic acid. After 8 hours, each culture was collected, and the amount of IL-1α was measured with a quantification kit (from R&D systems).

[5] = 3.0 mass % sample aqueous solution, n=2 (Table 5)
[6] = 3 mass % sample aqueous solution, n=2 (Table 4)

Compound | Evaluation (sensory irritation) [1, 5] | sensory irritation (Tables 4 and 5) [1] | Parakeratosis value (Average for 5 mice) [2] | effect of inhibiting parakeratosis (Tables 1 and 2) [2] | Evaluation (sensory irritation) [1, 6] | Parakeratosis value (Average for 4 mice) [2] | Visual observation value (Average for 4 mice) [2] | effects of inhibiting rough skin such as desquamation and erythema caused by unsaturated fatty acids (text on Table 1) [2] | TEWL value [3] | ΔTEWL value compared with the control aqueous solution (text on Table 3) [3] | further results
N=C(N)NC(CCC(=O)O)C(=O)O (racemic) [N-amidino-DL-glutamic acid] | A (Average rating is less than 0.2) | had no problem in sensory irritation | 1.2 | lowered the parakeratosis value | – | – | – | – | – | – | –
CNC(CCC(=O)O)C(=O)O (racemic) [N-methyl-DL-glutamic acid] | – | had no problem in sensory irritation | – | – | A (Average rating is less than 0.2) | 0.9 | 0.9 | showed the effects of inhibiting rough skin | 7.9 | significantly lowered the ΔTEWL value | –
NC(=O)NCCC[C@H](N)C(=O)O [Citrulline, reference compound] | – | – | 2.0 | did not show such effects | – | – | – | – | – | – | –
CC(=O)N[C@@H](CCC(=O)O)C(=O)O [N-acetyl-L-glutamic acid, reference compound] | – | – | – | inferior to those of the compounds of the present invention | – | 1.2 | 1.2 | – | 10.1 | inferior to that of the compounds of the present invention | –
CC(=O)N[C@@H](CCC(N)=O)C(=O)O [N-acetyl-L-glutamine, reference compound] | – | – | 1.9 | did not show such effects | – | 1.9 | 1.9 | did not show such effects | 13.2 | did not show such effects | –
CCNC(=O)CC[C@H](NC(C)=O)C(=O)NCC [N-acetyl-N′,N″-diethyl-L-glutamic acid-1,5-diamide] | – | – | – | – | – | – | – | – | – | – | IL-lα (pmol/ml, Mean ± S.D.) ([4]; 10 μM oleic acid + 500 μM test compound, solvent 4.7 ± 1.5, p < 0.01 vs. oleic acid): 225.5 ± 3.2 pmol/mL; inhibition of the increased production of IL-1α caused by oleic acid (Table 6) ([4]; 10 μM oleic acid, 500 μM (0.012%) compound): significantly inhibits the increased production of IL-1α
N=C(N)N[C@H](CCC(=O)O)C(=O)O [N-amidino-D-glutamic acid] | A (Average rating is less than 0.2) | had no problem in sensory irritation | 1.2 | lowered the parakeratosis value | – | – | – | – | – | – | –
Cl.N=C(N)N[C@@H](CCC(=O)O)C(=O)O [N-amidino-L-glutamic acid hydrochloride] | A (Average rating is less than 0.2) | had no problem in sensory irritation | 1.1 | lowered the parakeratosis value | – | – | – | – | – | – | –
N=C(N)N[C@@H](CCC(=O)O)C(=O)O [N-amidino-L-glutamic acid] | A (Average rating is less than 0.2) | had no problem in sensory irritation | 1.1 | lowered the parakeratosis value | – | – | – | – | – | – | –
O=C(O)CC[C@H](NC(=O)OCc1ccccc1)C(=O)O [N-benzyloxycarbonyl-L-glutamic acid] | – | had no problem in sensory irritation | – | – | A (Average rating is less than 0.2) | 0.9 | 0.9 | showed the effects of inhibiting rough skin | 6.8 | significantly lowered the ΔTEWL value | –
NC(=O)N[C@@H](CCC(=O)O)C(=O)O [N-carbamoyl-L-glutamic acid] | – | had no problem in sensory irritation | – | – | A (Average rating is less than 0.2) | 0.7 | 0.7 | showed the effects of inhibiting rough skin | 6.4 | significantly lowered the ΔTEWL value | –
CN[C@@H](CCC(=O)O)C(=O)O [N-methyl-L-glutamic acid] | – | had no problem in sensory irritation | – | – | A (Average rating is less than 0.2) | 0.8 | 0.8 | showed the effects of inhibiting rough skin | 6.4 | significantly lowered the ΔTEWL value | –
N=C(N)N[C@@H](CCC(=O)[O-])C(=O)[O-].[Na+].[Na+] [Sodium N-amidino-L-glutamate] | A (Average rating is less than 0.2) | had no problem in sensory irritation | 1.1 | lowered the parakeratosis value | – | – | – | – | – | – | –
CCCCCCCC/C=C\CCCCCCCC(=O)O [oleic acid, reference compound] | – | – | – | – | – | – | – | – | – | – | IL-lα (pmol/ml, Mean ± S.D.) ([4]; 10 μM oleic acid alone, solvent (ethanol) 4.7 ± 1.5): 239.8 ± 1.3 pmol/mL
NCCCC(=O)O [γ-aminobutyric acid, reference compound] | C (Average rating is 1.0 or greater to less than 2.0) | resulted in giving sensory irritation | – | – | C (Average rating is 1.0 or greater to less than 2.0) | – | – | – | – | – | –
